Source: paper PMC12163657 (ACS Omega, 2025)

Assays:
[1] = system: E2-induced uterine wet weight; assay: Ovariectomized mouse uterine wet weight study; format: in vivo; conditions: dose giving 50% inhibition of E2-induced uterine wet weight; oral, once daily, 3 days
[2] = Single-dose pharmacokinetics, rat; format: in vivo; conditions: Sprague-Dawley, serum
PR = target: T1, PR (Homo sapiens, UniProt P06401); assay: Reporter assay of gene transcription activity, PR; format: cell-based
T1 sequence (P06401 1-933): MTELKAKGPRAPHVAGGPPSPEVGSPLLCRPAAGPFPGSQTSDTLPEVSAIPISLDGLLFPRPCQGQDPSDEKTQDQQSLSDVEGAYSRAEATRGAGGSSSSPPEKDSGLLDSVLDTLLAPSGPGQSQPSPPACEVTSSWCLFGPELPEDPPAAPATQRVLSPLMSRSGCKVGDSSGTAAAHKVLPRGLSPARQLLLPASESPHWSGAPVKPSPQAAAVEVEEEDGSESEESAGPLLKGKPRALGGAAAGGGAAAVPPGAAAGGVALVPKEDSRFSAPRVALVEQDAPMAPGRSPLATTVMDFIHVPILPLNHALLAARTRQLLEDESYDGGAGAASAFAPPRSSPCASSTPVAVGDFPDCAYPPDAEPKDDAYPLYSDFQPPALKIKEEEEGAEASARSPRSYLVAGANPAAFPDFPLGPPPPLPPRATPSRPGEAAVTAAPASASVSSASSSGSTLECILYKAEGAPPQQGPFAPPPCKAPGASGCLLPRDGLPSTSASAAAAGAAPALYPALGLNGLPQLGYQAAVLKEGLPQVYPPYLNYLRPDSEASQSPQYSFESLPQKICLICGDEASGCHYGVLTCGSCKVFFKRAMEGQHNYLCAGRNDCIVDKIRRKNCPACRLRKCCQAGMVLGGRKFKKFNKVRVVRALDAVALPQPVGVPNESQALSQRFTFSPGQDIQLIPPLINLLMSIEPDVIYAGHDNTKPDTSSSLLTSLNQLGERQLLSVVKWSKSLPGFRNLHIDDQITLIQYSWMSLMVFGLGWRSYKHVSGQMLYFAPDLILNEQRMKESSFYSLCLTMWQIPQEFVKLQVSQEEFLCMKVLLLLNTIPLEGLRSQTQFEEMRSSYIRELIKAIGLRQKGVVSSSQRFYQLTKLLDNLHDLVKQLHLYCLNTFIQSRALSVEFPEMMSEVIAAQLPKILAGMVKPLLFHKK

[3] = system: CAMA-1 ESR1 Tyr537Ser cells; assay: CAMA-1 cell proliferation, ESR1 Tyr537Ser; format: cell-based; conditions: Homo sapiens, CAMA-1, read-out: CAMA-1 cell prolif. pIC50 (converted)
P-gp = P-gp (Homo sapiens, UniProt P08183); assay: P-gp inhibition, membrane vesicles; format: in vitro ADME
Chain of P-gp (P08183 whole entry): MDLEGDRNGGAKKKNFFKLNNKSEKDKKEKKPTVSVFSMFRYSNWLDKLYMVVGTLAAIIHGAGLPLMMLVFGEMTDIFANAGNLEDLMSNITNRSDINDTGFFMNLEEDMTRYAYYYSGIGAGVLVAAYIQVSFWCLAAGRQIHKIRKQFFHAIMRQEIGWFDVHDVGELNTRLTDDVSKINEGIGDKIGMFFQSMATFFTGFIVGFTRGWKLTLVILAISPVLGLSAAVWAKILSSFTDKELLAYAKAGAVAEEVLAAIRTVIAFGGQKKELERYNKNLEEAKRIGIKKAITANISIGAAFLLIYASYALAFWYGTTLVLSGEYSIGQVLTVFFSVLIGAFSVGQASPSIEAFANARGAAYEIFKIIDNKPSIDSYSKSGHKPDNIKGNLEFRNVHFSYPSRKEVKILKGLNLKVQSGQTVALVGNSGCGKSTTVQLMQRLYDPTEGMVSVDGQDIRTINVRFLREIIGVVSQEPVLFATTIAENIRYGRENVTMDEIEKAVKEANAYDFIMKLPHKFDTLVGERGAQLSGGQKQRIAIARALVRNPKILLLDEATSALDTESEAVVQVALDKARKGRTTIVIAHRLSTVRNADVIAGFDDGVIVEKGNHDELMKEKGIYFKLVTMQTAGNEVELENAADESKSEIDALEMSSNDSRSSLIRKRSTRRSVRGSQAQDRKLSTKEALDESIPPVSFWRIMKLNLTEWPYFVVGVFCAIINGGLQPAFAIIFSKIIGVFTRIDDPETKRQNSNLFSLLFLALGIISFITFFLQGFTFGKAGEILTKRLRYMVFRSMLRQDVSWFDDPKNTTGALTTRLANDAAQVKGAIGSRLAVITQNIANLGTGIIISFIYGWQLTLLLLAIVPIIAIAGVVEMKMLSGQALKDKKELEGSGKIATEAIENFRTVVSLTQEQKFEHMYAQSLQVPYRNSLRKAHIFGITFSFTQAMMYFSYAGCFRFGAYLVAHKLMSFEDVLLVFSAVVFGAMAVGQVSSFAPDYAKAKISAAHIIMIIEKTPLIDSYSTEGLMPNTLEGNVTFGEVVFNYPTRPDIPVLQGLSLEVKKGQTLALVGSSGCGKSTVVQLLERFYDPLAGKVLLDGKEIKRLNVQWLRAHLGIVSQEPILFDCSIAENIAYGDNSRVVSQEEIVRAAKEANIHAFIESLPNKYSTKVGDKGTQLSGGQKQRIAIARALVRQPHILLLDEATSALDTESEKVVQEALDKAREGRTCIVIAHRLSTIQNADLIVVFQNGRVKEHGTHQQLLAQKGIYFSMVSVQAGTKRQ

GR = target: T2, GR (Homo sapiens, UniProt P04150); assay: Reporter assay of gene transcription activity, GR; format: cell-based
T2 sequence (P04150 1-777): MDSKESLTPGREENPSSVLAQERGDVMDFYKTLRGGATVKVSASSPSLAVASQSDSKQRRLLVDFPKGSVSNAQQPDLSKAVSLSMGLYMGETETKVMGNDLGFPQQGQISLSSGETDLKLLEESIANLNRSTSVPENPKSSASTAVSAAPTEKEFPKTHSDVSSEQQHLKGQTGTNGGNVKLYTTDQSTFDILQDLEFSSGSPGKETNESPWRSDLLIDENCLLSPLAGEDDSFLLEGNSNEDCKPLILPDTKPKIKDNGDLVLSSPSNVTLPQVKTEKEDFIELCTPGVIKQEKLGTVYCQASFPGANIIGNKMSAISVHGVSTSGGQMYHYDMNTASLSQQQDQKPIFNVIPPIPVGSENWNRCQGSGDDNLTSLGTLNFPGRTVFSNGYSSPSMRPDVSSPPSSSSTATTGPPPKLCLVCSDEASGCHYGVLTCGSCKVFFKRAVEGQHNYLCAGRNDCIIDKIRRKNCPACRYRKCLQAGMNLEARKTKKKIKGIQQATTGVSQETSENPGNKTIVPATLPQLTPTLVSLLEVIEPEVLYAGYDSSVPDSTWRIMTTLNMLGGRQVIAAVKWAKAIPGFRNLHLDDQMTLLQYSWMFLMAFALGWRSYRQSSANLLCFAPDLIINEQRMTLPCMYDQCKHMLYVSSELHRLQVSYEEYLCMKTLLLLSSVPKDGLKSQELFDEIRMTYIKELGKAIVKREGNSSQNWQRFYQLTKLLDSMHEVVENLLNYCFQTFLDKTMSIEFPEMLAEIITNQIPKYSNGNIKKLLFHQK

## CCCN1CC(Oc2ccc([C@@H]3c4[nH]c5ccccc5c4C[C@@H](C)N3CC(C)(C)F)cc2)C1 [compound 21, (1R,3R)-2-(2-Fluoro-2-methylpropyl)-3-methyl-1-(4-((1-propylazetidin-3-yl)oxy)phenyl)-2,3,4,9-tetrahydro-1H-pyrido[3,4-b]indole]
[1]
  uterine wet weight ID50: <1 µg/kg
[2]; iv, 0.5 mg/kg
  AUC: 454 ng·h/mL
  Cmax: 313 ng/mL
  Vd: 8 L/kg
  clearance: 13.3 mL/min/kg
  half-life: 7 h
[2]; po, 5 mg/kg
  AUC: 2590 ng·h/mL
  Cmax: 138 ng/mL
  Tmax: 1.5 h
  bioavailability: 55%
  half-life: 16 h
PR
  IC50: > 3.16 µM
PR; in words
  agonist cross-reactivity on PR: no agonist cross-reactivity
PR; reporter assay, antag. mode
  PR pIC50, antag. mode: <5.5
[3]
  IC50: 0.0126 µM
P-gp
  IC50: 4 µM
GR
  IC50: > 3.16 µM
GR; in words
  agonist cross-reactivity on GR: no agonist cross-reactivity
GR; reporter assay, antag. mode
  GR pIC50, antag. mode: <5.5
